From publication PMC6556873, “Rapid Covalent-Probe Discovery by Electrophile-Fragment Screening” (Journal of the American Chemical Society, 2019)
Read-outs that look alike come from different tables or passages of the source.

Experiments:
in vitro [1] = experiment: in vitro; parameters: species or system HB2, HEK293; conditions: human, ccd841 cells
in vitro [2] = experiment: in vitro; parameters: species or system HB2, CCD841; conditions: human, hek293 cells
in vitro [3] = experiment: in vitro; parameters: species or system CCD841, HEK293; conditions: human, hb2 cells, read-out: HB-2 Cells Viability (%)
NNMT (hNNMT) = target: T1, NNMT (hNNMT) (Homo sapiens, UniProt P40261); parameters: Intact protein LC/MS covalent labelling, fragments in pools of five, 200 uM each, 4 °C; conditions: 24 h, 4 °C, pool of five; 200 µM; covalent
T1 construct: wild type, N-terminal His6 tag kept (no cleavage described), E. coli, construct 31248 Da
T1 sequence (P40261 1-264): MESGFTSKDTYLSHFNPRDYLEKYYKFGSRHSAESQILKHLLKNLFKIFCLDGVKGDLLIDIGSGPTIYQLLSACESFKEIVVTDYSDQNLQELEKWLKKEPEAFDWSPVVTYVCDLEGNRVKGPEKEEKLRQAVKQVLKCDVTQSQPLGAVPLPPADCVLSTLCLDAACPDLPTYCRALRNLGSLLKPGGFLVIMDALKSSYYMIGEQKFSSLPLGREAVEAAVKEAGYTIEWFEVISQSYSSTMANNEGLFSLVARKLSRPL

PCAF = target: T2, PCAF (Homo sapiens, UniProt Q92831); parameters: Intact protein LC/MS covalent labelling, fragments in pools of five, 200 uM each, 4 °C; conditions: 24 h, 4 °C, pool of five; 200 µM; covalent
T2 construct: gene KAT2B
T2 sequence (Q92831 whole entry, the tested form may be a part): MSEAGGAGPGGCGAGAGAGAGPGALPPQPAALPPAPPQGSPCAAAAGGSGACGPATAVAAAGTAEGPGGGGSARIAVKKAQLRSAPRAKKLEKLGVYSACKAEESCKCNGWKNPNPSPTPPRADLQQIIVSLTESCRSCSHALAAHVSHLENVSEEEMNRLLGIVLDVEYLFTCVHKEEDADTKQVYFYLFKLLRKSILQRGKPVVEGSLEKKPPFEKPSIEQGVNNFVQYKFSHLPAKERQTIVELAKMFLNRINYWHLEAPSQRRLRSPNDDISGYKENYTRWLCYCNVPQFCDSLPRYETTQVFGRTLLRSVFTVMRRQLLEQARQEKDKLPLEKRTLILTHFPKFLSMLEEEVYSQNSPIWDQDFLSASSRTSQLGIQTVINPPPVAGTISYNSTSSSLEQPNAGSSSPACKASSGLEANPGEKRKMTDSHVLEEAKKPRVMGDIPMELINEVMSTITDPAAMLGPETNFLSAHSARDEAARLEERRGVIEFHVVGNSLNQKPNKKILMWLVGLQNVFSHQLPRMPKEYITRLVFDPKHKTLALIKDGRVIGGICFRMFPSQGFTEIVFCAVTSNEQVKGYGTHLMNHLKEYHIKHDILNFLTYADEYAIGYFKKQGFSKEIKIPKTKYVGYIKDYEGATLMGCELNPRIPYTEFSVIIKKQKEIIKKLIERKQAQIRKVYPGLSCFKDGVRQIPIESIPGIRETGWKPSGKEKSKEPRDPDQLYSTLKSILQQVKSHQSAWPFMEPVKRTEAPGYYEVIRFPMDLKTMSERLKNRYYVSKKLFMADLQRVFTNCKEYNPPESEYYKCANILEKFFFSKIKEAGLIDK

NUDT7 = target: T3, NUDT7 (Homo sapiens, UniProt P0C024); parameters: Intact protein LC/MS covalent labelling, fragments in pools of five, 200 uM each, 4 °C; conditions: 24 h, 4 °C, pool of five; 200 µM; covalent
T3 construct: residues 14-235, E. coli, pNIC28-Bsa4, N-terminal His6 tag removed by TEV, construct 26672 Da
T3 sequence (P0C024 14-235): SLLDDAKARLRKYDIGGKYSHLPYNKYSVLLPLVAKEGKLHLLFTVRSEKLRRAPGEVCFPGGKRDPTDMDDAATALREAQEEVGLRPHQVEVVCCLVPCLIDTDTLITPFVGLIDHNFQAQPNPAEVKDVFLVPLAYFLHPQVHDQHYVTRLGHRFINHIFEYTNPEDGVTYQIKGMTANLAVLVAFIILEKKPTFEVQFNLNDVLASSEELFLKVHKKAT

BSA = target: T4, BSA (Bos taurus, UniProt P02769); parameters: Intact protein LC/MS covalent labelling, fragments in pools of five, 200 uM each, 4 °C; conditions: 24 h, 4 °C, pool of five; 200 µM; covalent
T4 construct: gene ALB
T4 sequence (P02769 whole entry, the tested form may be a part): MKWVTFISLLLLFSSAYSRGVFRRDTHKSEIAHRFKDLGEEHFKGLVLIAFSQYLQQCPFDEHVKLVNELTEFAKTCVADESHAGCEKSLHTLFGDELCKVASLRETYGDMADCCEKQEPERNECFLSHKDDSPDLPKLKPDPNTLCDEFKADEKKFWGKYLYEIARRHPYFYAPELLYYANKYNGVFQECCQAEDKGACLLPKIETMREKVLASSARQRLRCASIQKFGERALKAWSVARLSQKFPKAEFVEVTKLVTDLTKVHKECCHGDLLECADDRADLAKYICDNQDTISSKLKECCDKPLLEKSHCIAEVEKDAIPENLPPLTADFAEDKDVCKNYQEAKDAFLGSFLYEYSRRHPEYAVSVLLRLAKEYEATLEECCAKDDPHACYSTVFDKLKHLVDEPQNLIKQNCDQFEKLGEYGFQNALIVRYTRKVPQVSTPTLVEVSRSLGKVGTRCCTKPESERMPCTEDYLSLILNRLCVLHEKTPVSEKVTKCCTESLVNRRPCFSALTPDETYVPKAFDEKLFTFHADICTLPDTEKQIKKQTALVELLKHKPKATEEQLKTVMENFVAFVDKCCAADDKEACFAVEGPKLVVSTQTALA

OTUB2 (OTUB2A) = target: T5, OTUB2 (OTUB2A) (Homo sapiens, UniProt Q96DC9); parameters: Intact protein LC/MS covalent labelling, fragments in pools of five, 200 uM each, 4 °C; conditions: 24 h, 4 °C, pool of five; 200 µM; covalent
T5 construct: full length residues 1-234, E. coli BL21(DE3)-R3, His tag removed by TEV, construct 27312 Da
T5 sequence (Q96DC9 1-234): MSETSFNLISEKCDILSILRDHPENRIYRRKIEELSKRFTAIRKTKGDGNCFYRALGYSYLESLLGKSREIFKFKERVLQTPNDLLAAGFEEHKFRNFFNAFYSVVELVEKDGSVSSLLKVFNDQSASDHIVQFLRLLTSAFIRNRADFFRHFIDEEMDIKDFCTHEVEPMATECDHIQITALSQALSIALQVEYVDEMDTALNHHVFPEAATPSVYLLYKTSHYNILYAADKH

Compound | viability at 48 h, 10 µM (in vitro [1]) [%] | viability at 48 h, 10 µM (in vitro [2]) [%] | viability at 48 h, 10 µM (in vitro [3]) [%] | NNMT (NNMT (hNNMT)) | PCAF (PCAF) | NUDT7 (NUDT7) | BSA (BSA) | OTUB2 (OTUB2 (OTUB2A))
CNC(=O)c1cccc(NC(=O)CCl)c1 [PCM-0102113] | 55 | 1.7 | 25.2 | 0 | 0 | 0 | 0 | 0
CC(C)(C)n1ncc2c1CCCC2NC(=O)CCl.Cl (stereo not drawn) [PCM-0103046] | 90.9 | 89.3 | 81.5 | 0 | 0 | 0 | 0 | 0.36
CC(C)C(C)(C#N)NC(=O)CCl (stereo not drawn) [PCM-0102626] | 82.1 | 89.9 | 96.4 | 0 | 0 | 0 | 0 | 0
Cc1nc(C2(NC(=O)CCl)CCCCC2)no1 [PCM-0102983] | 112 | 99.7 | 102 | 0 | 0 | 0.1 | 0 | 0
C=CC(=O)N1Cc2ccc(S(=O)(=O)N(C)C)cc2C1 [PCM-0102718] | 99.7 | 73.6 | 97.4 | 0 | 0 | 0 | 0.3 | 0
O=C(CCl)NC(=O)Cc1ccccc1 [PCM-0102902] | 117 | 116 | 104 | 0 | 0 | 0 | 0 | 0
O=C(CCl)NC1CCCC(C(F)(F)F)C1 (stereo not drawn) [PCM-0102862] | 106 | 84 | 95 | 0.29 | 0 | 0 | 0 | 0.14
C=CC(=O)NCc1cc(F)c(C(F)(F)F)cc1F [PCM-0103078] | 96.9 | 88.4 | 101 | 0.2 | 0 | 0 | 0 | 0
C=CC(=O)N1CCCC(c2nncn2C2CC2)C1 (stereo not drawn) [PCM-0102567] | 112 | 113 | 102 | 0 | 0 | 0 | 0 | 0
C=CC(=O)Nc1nc(C)cc(C)n1 [PCM-0102547] | 100 | 133 | 98.2 | 0 | 0 | 0.34 | 0 | 0
O=C(CCl)Nc1cccc(Cl)c1N1CCOCC1 [PCM-0102893] | 78 | 26.9 | 51.2 | 0.62 | 0 | 0.14 | 0 | 0
O=C(CCl)NNC(=O)c1ccc([N+](=O)[O-])cc1 [PCM-0102885] | 83.3 | 92.9 | 91 | 0 | 0 | 0 | 0 | 0.21
Cl.O=C(CCl)N1CCN(Cc2ccc3c(c2)OCO3)CC1 [PCM-0102397] | 67.3 | 31.7 | 20.7 | 0 | 0 | 0 | 0 | 0
C=CC(=O)N1CCCN(c2ccc(-c3ccccc3)nn2)CC1 [PCM-0102964] | 103 | 87.2 | 102 | 0 | 0 | 0 | 0 | 0
Cc1ccc(NC(=O)CCl)c(F)c1 [PCM-0103028] | 58.4 | 29 | 42.3 | 0.23 | 0 | 0 | 0.18 | 0.14
O=C(Nc1ccccc1O)C1CCN(C(=O)CCl)CC1 [PCM-0102389] | 63 | 16 | 35.7 | 0 | 0 | 0.1 | 0 | 0.14
Cc1ccc(NC(=O)CCl)cc1Br [PCM-0102955] | 71.2 | 38.3 | 41.5 | 0.78 | 0 | 0.27 | 0 | 0.14
Cl.O=C(CCl)N1CCN(Cc2ccc(Br)s2)CC1 [PCM-0102169] | 33 | 8.6 | 8.8 | 0 | 0 | 0 | 0 | 0
CC(=O)c1oc2ccccc2c1NC(=O)CCl [PCM-0102918] | 65.3 | 36.8 | 42.4 | 0.56 | 0 | 0.39 | 0 | 0
C=CC(=O)N(C)CC1CCn2ccnc2C1 (stereo not drawn) [PCM-0102752] | 122 | 88.4 | 97.7 | 0 | 0 | 0 | 0 | 0
COCC(=O)NC(=O)CCl [PCM-0102904] | 116 | 105 | 101 | 0 | 0 | 0 | 0 | 0
Cc1cc(C)c(NC(=O)CCl)c(Cl)c1 [PCM-0102994] | 73.1 | 74.1 | 94 | 0.46 | 0 | 0.26 | 0 | 0
COC(=O)c1c(NC(=O)CCl)sc(C)c1C [PCM-0102322] | 80 | 33.3 | 62.5 | 0.18 | 0 | 0.4 | 0 | 0
Cc1ccsc1CNC(=O)CCl [PCM-0103075] | 76.7 | 83.8 | 96.1 | 0 | 0 | 0 | 0.21 | 0.55
O=C(CCl)NC(=O)C1COc2ccccc2O1 (stereo not drawn) [PCM-0102462] | 102 | 99.1 | 103 | 0 | 0 | 0 | 0 | 0
C=CC(=O)N1CCCc2cc(C(=O)O)ccc21 [PCM-0102421] | 109 | 87.2 | 96.3 | 0.19 | 0 | 0 | 0 | 0
C=CC(=O)N1CCCC1C(=O)Nc1nc2ccccc2s1 (stereo not drawn) [PCM-0102681] | 115 | 79.7 | 95.7 | 0 | 0 | 0 | 0 | 0
